Measured values reported in patent US12065471B2, “B*44 restricted peptides for use in immunotherapy against cancers and related methods” (Immatics Biotechnologies GmbH, priority 2018, dated 2024).

Columns and labels:
[1] = test system: CD8+ T cells; assay: In vitro immunogenicity: T-cell priming with aAPCs loaded with peptide/MHC and anti-CD28, pMHC multimer readout; format: cell-based, human; details: pMHC multimer readout after T-cell priming
Protocol: After three cycles of stimulation, the detection of peptide-reactive cells was performed by 2D multimer staining with B*44/SEQ ID NO: 469 (FIG. 3A), B*44/SEQ ID NO: 512 (FIG. 3B), B*44/SEQ ID NO: 9 (FIG. 3C), B*44/SEQ ID NO: 11 (D), B*44/SEQ ID NO: 17 (E), B*44/SEQ ID NO: 35 (F) or B*44/SEQ ID NO: 41 (FIG. 3G). Right panels (FIGS. 3A through 3G) show control staining of cells stimulated with irrelevant B*44/peptide complexes. Viable singlet cells were gated for CD8+ lymphocytes. Boolean gates helped excluding false-positive events detected with multimers specific for different peptides.
In order to obtain information regarding the immunogenicity of the TUMAPs of the present invention, the inventors performed investigations using an in vitro T-cell priming assay based on repeated stimulations of CD8+ T cells with artificial antigen presenting cells (aAPCs) loaded with peptide/MHC complexes and anti-CD28 antibody.
In order to perform in vitro stimulations by artificial antigen presenting cells loaded with peptide-MHC complex (pMHC) and anti-CD28 antibody, the inventors first isolated CD8+ T cells from fresh HLA-A*02 leukapheresis products via positive selection using CD8 microbeads (Miltenyi Biotec, Bergisch-Gladbach, Germany) of healthy donors obtained from the University clinics Mannheim, Germany, after informed consent.
PBMCs and isolated CD8+ lymphocytes were incubated in T-cell medium (TCM) until use consisting of RPMI-Glutamax (Invitrogen, Karlsruhe, Germany) supplemented with 10% heat inactivated human AB serum (PAN-Biotech, Aidenbach, Germany), 100 U/ml Penicillin/100 μg/ml Streptomycin (Cambrex, Cologne, Germany), 1 mM sodium pyruvate (CC Pro, Oberdorda, Germany), 20 μg/ml Gentamycin (Cambrex). 2.5 ng/ml IL-7 (PromoCell, Heidelberg, Germany) and 10 U/ml IL-2 (Novartis Pharma, Nümberg, Germany) were also added to the TCM at this step.
Generation of pMHC/anti-CD28 coated beads, T-cell stimulations and readout was performed in a highly defined in vitro system using four different pMHC molecules per stimulation condition and 8 different pMHC molecules per readout condition.
The purified co-stimulatory mouse IgG2a anti human CD28 Ab 9.3 (Jung et al., 1987) was chemically biotinylated using Sulfo-N-hydroxysuccinimidobiotin as recommended by the manufacturer (Perbio, Bonn, Germany). Beads used were 5.6 μm diameter streptavidin coated polystyrene particles (Bangs Laboratories, Illinois, USA).
800.000 beads/200 μl were coated in 96-well plates in the presence of 4×12.5 ng different biotin-pMHC, washed and 600 ng biotin anti-CD28 were added subsequently in a volume of 200 μl. Stimulations were initiated in 96-well plates by co-incubating 1×10^6 CD8+ T cells with 2×10^5 washed coated beads in 200 μl TCM supplemented with 5 ng/ml IL-12 (PromoCell) for 3 days at 37° C. Half of the medium was then exchanged by fresh TCM supplemented with 80 U/ml IL-2 and incubating was continued for 4 days at 37° C. This stimulation cycle was performed for a total of three times. For the pMHC multimer readout using 8 different pMHC molecules per condition, a two-dimensional combinatorial coding approach was used as previously described (Andersen et al., 2012) with minor modifications encompassing coupling to 5 different fluorochromes. Finally, multimeric analyses were performed by staining the cells with Live/dead near IR dye (Invitrogen, Karlsruhe, Germany), CD8-FITC antibody clone SK1 (BD, Heidelberg, Germany) and fluorescent pMHC multimers. For analysis, a BD LSRII SORP cytometer equipped with appropriate lasers and filters was used. Peptide specific cells were calculated as percentage of total CD8+ cells. Evaluation of multimeric analysis was done using the FlowJo software (Tree Star, Oregon, USA). In vitro priming of specific multimer+CD8+ lymphocytes was detected by comparing to negative control stimulations.

[2] = biological target: HLA-B*44:05 (Homo sapiens, UniProt P01889, A223V/A65T/A93T/A95T/D201E/D98Y/E176V/E187L/E204Q/E69K/G107R/H137Y/K202T/L105A/L119I/N104T/N87E/Q56L/Q94N/R106L/R155S/R180D/S101N/S121R/S35A/S48T/T118I/V36M/W191S/Y91S); assay: MHC binding assay (UV-ligand exchange, β2m ELISA, peptide exchange yield); details: binding to HLA-B*44:05
Method in brief: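 Binding is read as exchange yield, i.e. stabilized complex remaining after UV cleavage of a photolabile ligand in the presence of the candidate peptide. Streptavidin-captured monomers (100-fold dilution) are probed with HRP-anti-β2m, 1h at 37° C, TMB, A450. Standard curve: HLA-A*02:01/MLA-001 monomers at 15-500 ng/ml.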

Row | Substance | Wells positive [%] ([1]; Table 10b) | Peptide exchange (MHC class I binding score, peptide exchange yield) [2] | Wells positive [%] ([1]; Table 10a)
1 | 16 (NESDRLVYF; listed as Homo sapiens) [compound 16] | ++ (20%-49% = ++) | +++ (>50 = +++) | –
2 | 79 (TEAQRLDCW; listed as Homo sapiens) [compound 79] | + (<20% = +) | +++ (>50 = +++) | –
3 | 33 (IEYENQKRL; listed as Homo sapiens) [compound 33] | ++ (20%-49% = ++) | ++ (>20% = ++) | –
4 | 22 (TEEITEGVW; listed as Homo sapiens) [compound 22] | + (<20% = +) | ++++ (>75% = ++++) | –
5 | 19 (MEHSDENIQFW; listed as Homo sapiens) [compound 19] | ++ (20%-49% = ++) | ++ (>20% = ++) | –
6 | 54 (QEISAHRTEF; listed as Homo sapiens) [compound 54] | + (<20% = +) | +++ (>50 = +++) | –
7 | 29 (TENPKKFKI; listed as Homo sapiens) [compound 29] | ++++ (>=70% = ++++) | +++ (>50 = +++) | –
8 | 25 (SEKEPGQQY; listed as Homo sapiens) [compound 25] | ++ (20%-49% = ++) | ++ (>20% = ++) | –
9 | 49 (SEYVHSSF; listed as Homo sapiens) [compound 49] | + (<20% = +) | ++ (>20% = ++) | –
10 | 35 (RELVHMINW; listed as Homo sapiens) [compound 35] | ++ (20%-49% = ++) | ++++ (>75% = ++++) | –
11 | 7 (SESDLVNFI; listed as Homo sapiens) [compound 7] | + (<20% = +) | +++ (>50 = +++) | –
12 | 69 (DENIQKFIW; listed as Homo sapiens) [compound 69] | ++ (20%-49% = ++) | +++ (>50 = +++) | –
13 | 70 (AEAEEAMKRL; listed as Homo sapiens) [compound 70] | ++ (20%-49% = ++) | +++ (>50 = +++) | –
14 | 73 (GEGTLRLSW; listed as Homo sapiens) [compound 73] | ++ (20%-49% = ++) | ++++ (>75% = ++++) | –
15 | 28 (QEFPAHSL; listed as Homo sapiens) [compound 28] | + (<20% = +) | +++ (>50 = +++) | –
16 | 68 (NEIDIHSIYF; listed as Homo sapiens) [compound 68] | ++ (20%-49% = ++) | ++++ (>75% = ++++) | –
17 | 80 (TEQSLYYRQW; listed as Homo sapiens) [compound 80] | ++++ (>=70% = ++++) | +++ (>50 = +++) | –

Row | Substance | Wells positive [%] ([1]; Table 10b) | Peptide exchange (MHC class I binding score, peptide exchange yield) [2] | Wells positive [%] ([1]; Table 10a)
18 | 32 (REYEYDLKW; listed as Homo sapiens) [compound 32] | + (<20% = +) | ++++ (>75% = ++++) | –
19 | 15 (MEAELVRRI; listed as Homo sapiens) [compound 15] | + (<20% = +) | +++ (>50 = +++) | –
20 | 421 (TEDYSKQAL; listed as Homo sapiens) [compound 421] | + (<20% = +) | +++ (>50 = +++) | –
21 | 6 (AELVGPVIPQDW; listed as Homo sapiens) [compound 6] | ++ (20%-49% = ++) | +++ (>50 = +++) | –
22 | 47 (TEVHSSPAQRW; listed as Homo sapiens) [compound 47] | +++ (50%-69% = +++) | +++ (>50 = +++) | –
23 | 37 (IEQGRVVLW; listed as Homo sapiens) [compound 37] | ++++ (>=70% = ++++) | ++++ (>75% = ++++) | –
24 | 45 (EEINELNRMI; listed as Homo sapiens) [compound 45] | +++ (50%-69% = +++) | +++ (>50 = +++) | –
25 | 9 (MEVDPIGHLYIF; listed as Homo sapiens) [compound 9] | +++ (50%-69% = +++) | ++++ (>75% = ++++) | –
26 | 44 (SEFGAPRW; listed as Homo sapiens) [compound 44] | ++++ (>=70% = ++++) | +++ (>50 = +++) | –
27 | 12 (KEVDPTGHSF; listed as Homo sapiens) [compound 12] | + (<20% = +) | +++ (>50 = +++) | –
28 | 71 (AEVGDIIKV; listed as Homo sapiens) [compound 71] | ++ (20%-49% = ++) | ++ (>20% = ++) | –
29 | 53 (KEDNPSGHTY; listed as Homo sapiens) [compound 53] | ++ (20%-49% = ++) | +++ (>50 = +++) | –
30 | 506 (QESDLRLFL; listed as Homo sapiens) [compound 506] | – | – | + (<20% = +)
31 | 460 (SEFMQVIF; listed as Homo sapiens) [compound 460] | – | – | + (<20% = +)
32 | 467 (FEYDFLLQRI; listed as Homo sapiens) [compound 467] | – | – | + (<20% = +)
33 | 508 (AESEDLAVHL; listed as Homo sapiens) [compound 508] | – | – | + (<20% = +)
34 | 474 (AEEEIMKKI; listed as Homo sapiens) [compound 474] | – | – | + (<20% = +)
